Measured values as given in patent publication US20090318290A1, “N-(4-PYRIDIN-2-YLBUTYL) BENZAMIDE DERIVATIVES AND THEIR USE AS FUNGICIDES” (BAYER CROPSCIENCE SA, priority 2006, published 2009).

System: Pyrenophora teres
Assay: In vivo test on Pyrenophora teres (barley net blotch)
Conditions: dose of 110 ppm; barley plants (Express variety), preventive spray 24 hours before contamination; grading 12 days after contamination
Description: The active ingredients tested are prepared by homogenization in a mixture of acetone/tween/DMSO, then diluted with water to obtain the desired active material concentration.
Barley plants (Express variety), sown on a 50/50 peat soil-pozzolana substrate in starter cups and grown at 12° C., are treated at the 1-leaf stage (10 cm tall) by spraying with the active ingredient prepared as described above. Plants, used as controls, are treated with the mixture of acetone/tween/DMSO/water not containing the active material.
After 24 hours, the plants are contaminated by spraying them with an aqueous suspension of Pyrenophora teres spores (12,000 spores per ml). The spores are collected from a 12-day-old culture. The contaminated barley plants are incubated for 24 hours at about 20° C. and at 100% relative humidity, and then for 12 days at 80% relative humidity.
Grading is carried out 12 days after the contamination, in comparison with the control plants.

Compound: O=C(NCCCCc1ncc(C(F)(F)F)cc1Cl)c1ccccc1C(F)(F)F [Compound 1]
- efficacy (grading in comparison with the control plants): at least 60%
